Patent US7527971B2, “Adult stem cell lines” (Vitro Diagnostics, Inc., priority 2004, dated 2009)
Ends that are not written are not given here.

Experiments:
VIT1 cells [1] = assay: IHC analysis of insulin or Ep-CAM positive cells in VIT1 culture exposed to nicotinamide; type: cell-based, human; details: 10 mM nicotinamide, 5-day exposure
VIT4-G9 cells [2] = assay: Insulin secretion from VIT4-G9 cultures after growth/differentiation conditions; type: cell-based, human
Procedure: ILCC were examined to determine the level of insulin content and its secretion by use an immunoassay specific to human insulin (Linco Research, Catalog Number EZHI-14K). Since the growth medium contains recombinant human insulin, tissues were extensively washed with PBS prior to determination of secretion. ILCC were acutely maintained in a physiological saline solution (140 mM NaCl, 5 mM KCl, 5 mM CaCl2, 0.5% BSA, 1 mM sodium pyruvate, 2 mM glucose, and 10 mM HEPES, pH 7.4). […] The control solution contained 2 mM glucose, the elevated glucose solution was identical but contained 20 mM glucose, and the elevated K^+ solution contained 50 mM K^+, while the other constituents were identical to the control solution. The physiological saline solution was collected following centrifugation (10 minutes at 470×g) and frozen at −20° C. for later analysis. The remaining ILCC were lyzed in 10 mM Tris, 1 mM EDTA and 10% glycerol; the pellet was extracted overnight at 4° C. in 70% ethanol, 0.18 mM HCl and the extract was dried using Model DNA 110 Speed Vac (Savant, Inc.). The dried extract was reconstituted in 100 μl PBS prior to assay for insulin content. […] For example, glucose-stimulated insulin secretion requires expression of functional glucose transporter protein and glucokinase in addition to insulin. […]

VIT4-G9 cells [3] = assay: Effect of nicotinamide on prevalence of ILCC in VIT4-G9 cultures; type: cell-based, human; details: 10 mM nicotinamide
From the text: A general principle of developmental cell biology is that cellular differentiation and growth are at least partially exclusive of each other. High rates of cellular proliferation usually occur in the absence of differentiation, while differentiation usually requires quiescence or low rates of cell proliferation. Initial observations of the clonal cell line VIT4-G9 were consistent with this concept since pancreatic hormone-containing ILCC only appeared at later stages of culture following slower cell growth as a consequence of confluence and possibly contact inhibition.

VIT1 cells [4] = assay: Induction of ILCC, insulin and Ep-CAM in VIT1 cells by GLP-1 (IHC); type: cell-based, human
Procedure: VIT1 cells were cultured and expanded through multiple passages as described in Example 2, “Cell Growth Analysis”. The culture medium used for expansion was VitroPlus II, (Vitro Diagnostics, Inc, Catalog Number VC03014) containing 10 nM GLP-1 (1-37) (Bachem, Catalog Number H-5552). Different cultures were expanded for 11 to 20 days encompassing two to five passages prior to immunohistochemical determination of insulin or Ep-CAM. A negative control culture that was expanded in VitroPlus II without added GLP-1 through 6 passages (24 days) prior to IHC determination of insulin. Insulin and Ep-CAM presence within these cultures was determined by fixation of the cultured cells in 1% glutaraldehyde, overnight incubation with insulin MAB (Sigma Chemical Co, Catalog Number I2018) at 1/1000 dilution in PBS or Ep-CAM, (Epithelial Specific Antigen) MAB (Biogenesis, Catalog Number 4240-4009) at 1/200 dilution in PBS followed by washout and incubation with an HRP-conjugated secondary antibody (Goat-anti-mouse-HRP (Jackson ImmunoResearch Laboratories, Inc., Catalog Number 115-035-062) at 37° C. for 30 minutes. Following washout of the secondary antibody, the fixed cells were then incubated for 15 minutes in diaminobenzidine (Sigma Chemical Co, Catalog Number D-4293), and the stained cultures were examined by phase-contrast microscopy and photographed. […]

[5] = test system: primary cultures of dispersed human pancreatic cells; assay: Effect of HGF on ILCC growth and morphology in primary cultures; type: cell-based
Procedure: The effects of hepatocyte growth factor (HGF; PeproTech, Inc. Catalog Number 100-39) were determined by addition to the growth medium described above at a final concentration of 30 ng/ml. […] The acute effects of HGF on ILCC growth and morphology were determined and longer-term experiments were conducted as follows. The sample consisted of a cryopreserved, non-settled fraction of cells resulting from sub-culture of ILCC from the first passage of the culture of human pancreatic dispersed cells prepared as described above. The frozen cells were rapidly thawed, cryopreservative was washed out and the cells were plated at 10,000/cm^2 during the second passage. Cultures were exposed to 30 ng/ml HGF or control medium without added HGF and the cultures were expanded through 4 passages. Thereafter, both the control and HGF cultures were maintained and expanded through 8 passages using growth medium without added HGF. The number of ILCC in these cultures was determined by microscopic inspection.
To determine if ILCC cultures were affected by environmental conditions, the effect of HGF exposure was determined as described above (See: Methods). HGF is known to be mitogenic to beta cells, increases beta cell mass and total insulin production in vivo (Gracia-Ocana, et. al, 2000). HGF is also a known survival factor for a variety of cells (Dai, et. al, 2003). […]

In the case of `NC(=O)c1cccnc1` [nicotinamide], the “Number of insulin or Ep-CAM positive cells by IHC” value (VIT1 cells [1]) is reported as “did not appear to change”, the “Glucose-stimulated insulin secretion: requirement in differentiation phase” value (VIT4-G9 cells [2]; 10 mM nicotinamide in 0.5% FBS VitroPlus II, 6 days) is reported as “necessary” and the “Increase in prevalence of ILCC” value (VIT4-G9 cells [3]) is reported as “about 5 fold”.
With “glucagon-like peptide 1 (HAEGTFTSDVSSYLEGQAAKEFIAWLVKGR; ends and bridges not checked; UniProt P01275 98-127, looked up) [GLP-1, GLP-1 (1-37) (Bachem, Catalog Number H-5552)]” the “Ep-CAM expression by IHC” value (VIT1 cells [4]; 10 nM GLP-1) was “induced”, the “Reduction of ILCC frequency in negative control culture lacking GLP-1” value (VIT1 cells [4]; 10 nM GLP-1 in VitroPlus II versus no GLP-1) was “thousand-fold” and the “Glucose-stimulated insulin secretion: requirement during growth phase” value (VIT4-G9 cells [2]; GLP-1 in VitroPlus II, 5 days) was “necessary”.
With hepatocyte growth factor [HGF] the “Increase in number of ILCC” value ([5]; 30 ng/ml HGF during passages 2 through 4, counted at early pass 7) was ~5 fold and the “Morphology of ILCC” value ([5]; 30 ng/ml HGF, short time of exposure, reversed when HGF removed) was “shift in the morphology of ILCC from larger islets containing small cells to more loosely attached, smaller islets composed of larger cells”.
